For one test, the system named is SMS. The note with it: reported weak inhibitory activity; cited from earlier work.
For test [1], the target named is T1, Sphingomyelin Synthase 2 (SMS2 pure enzyme) (Homo sapiens, UniProt Q8NHU3).
T1 construct: Yu, Cao research group of National Protein Science Center (Shanghai)
T1 sequence (Q8NHU3 1-365): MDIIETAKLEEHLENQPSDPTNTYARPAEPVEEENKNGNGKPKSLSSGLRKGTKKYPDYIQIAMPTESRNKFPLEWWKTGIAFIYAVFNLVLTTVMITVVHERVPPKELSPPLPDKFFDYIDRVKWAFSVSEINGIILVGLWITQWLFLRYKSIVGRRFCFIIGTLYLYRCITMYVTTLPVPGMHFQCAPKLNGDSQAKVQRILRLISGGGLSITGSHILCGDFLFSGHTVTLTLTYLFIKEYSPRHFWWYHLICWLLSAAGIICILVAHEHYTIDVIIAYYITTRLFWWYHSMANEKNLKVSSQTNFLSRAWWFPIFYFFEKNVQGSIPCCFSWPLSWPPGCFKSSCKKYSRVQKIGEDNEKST
Put plainly: In vitro SMS2 pure enzyme inhibition, HPLC fluorogenic quantitative detecting method (C6-NBD-Ceramide to C6-NBD-SM). Type of test: biochemical. Particulars: for IC50: SMS2 pure enzyme, five concentrations, three parallel groups, experimental value; for Selectivity ratio: SMS1 IC50 relative to SMS2 IC50. How it is done:
Add […] SMS2 pure enzyme DDM solution (total protein content 1.5 μg/μL), 1 μL test compound in DMSO solution or blank DMSO solution, 79.7 μL DDM buffer to 1.5 mL Eppendorf tube, vortex 30 seconds, let stand at room temperature for 5 min. Then add 20 μL DDM buffer containing 1 μL DMPC in ethanol (40 mmol/L) and 1 μL C6-NBD-Ceramide in DMSO (1.16 mmol/L). After vortexing for 30 seconds, Incubate for 0.5 h under water bath at 37° C. Then remove, add 200 μL of absolute ethanol, and vortex for 30 seconds. Take out 200 μL of the mixture and store it at 4° C. for high performance liquid chromatography analysis.
(§1) Using the same HPLC fluorogenic quantitative detecting method as reference (Xiaodong Deng; Hong Sun; et al. Analytical Letters, 2012, 45:12, 1581-1589) to analyses samples obtained above. Analysize and record peak areas of C6-NBD-SM (Asm) and C6-NBD-Ceramide (Acer) of each sample from blank group, positive control group (compound D2) and under tested compound group. Calculate inhibition rate from the formula below: […]
The DMSO stock solution of under tested compound (6 mM) was diluted stepwise into five concentration gradient. 1 μL solution of each concentration was added into the trial system to prepare samples with the method mentioned in the first step of application case 15. The Asm values of the five concentration solution of tested compound were measured (compound D2 is a positive control), and the inhibition rate under the five concentration were calculated and fitted to obtain median inhibitory concentration (IC50). Each compound was measured three parallel groups. SMS2 median inhibitory concentration and SMS1 single inhibitory concentration (50 μM) of Scheme I-1˜I-38, and SMS1 median inhibitory concentration of some compounds are listed below in Table 1.

Test [2] addresses T2, Sphingomyelin Synthase 1 (SMS1 pure enzyme) (Homo sapiens, UniProt Q86VZ5).
T2 construct: Yu, Cao research group of National Protein Science Center (Shanghai)
T2 sequence (Q86VZ5 1-413): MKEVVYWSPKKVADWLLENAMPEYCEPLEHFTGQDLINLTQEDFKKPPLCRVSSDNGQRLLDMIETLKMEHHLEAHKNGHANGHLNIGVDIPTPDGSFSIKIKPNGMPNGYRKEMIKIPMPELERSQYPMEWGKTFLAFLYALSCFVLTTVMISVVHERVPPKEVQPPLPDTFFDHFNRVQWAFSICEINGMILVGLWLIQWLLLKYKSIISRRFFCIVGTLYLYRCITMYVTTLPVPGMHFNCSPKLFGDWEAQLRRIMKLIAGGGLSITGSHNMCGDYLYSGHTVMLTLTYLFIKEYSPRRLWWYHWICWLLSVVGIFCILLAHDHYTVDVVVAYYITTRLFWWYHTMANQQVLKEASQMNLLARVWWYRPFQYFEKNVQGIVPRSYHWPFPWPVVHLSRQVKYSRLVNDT
In words: In vitro SMS1 pure enzyme inhibition, HPLC fluorogenic quantitative detecting method. The format is biochemical. The note with it: for inhibition at 50 µM: single concentration 50 μM.
Text: Referring to the above SMS2 inhibitory activity detection method, and using SMS1 pure enzyme instead of SMS2 pure enzyme for corresponding operation.
as §1
Part 4. Determination of SMS1 Median Inhibitory Concentration (IC50) and SMS1 Single Concentration (50 μM) Inhibitory Concentration of Alkoxybenzeno Five- or Six-Member Heterocyclic Amines (Scheme I-1˜I-38)
The experiment can be carried out with the corresponding concentration according to the operation similar to the determination of the median inhibitory concentration (IC50) of SMS2.

On to `S=C(S)OC1CC2CC1C1CCCC21` (stereo not drawn) [Scheme D609], for which the IC50 in the test on SMS is 375 µM.
In turn, `FC(F)(F)Oc1cccc(COc2cccc3onc(Nc4cccnc4)c23)c1` [Scheme I-20, 4-((3-Trifluoromethoxybenzyl)oxy)-N-(pyridin-3-yl)benzo[d]-isoxazol-3-amine] showed an IC50 in test [1] of 1.27 µM. In test [2], the inhibition at 50 µM amounted to 30%.
For `FC(F)(F)Oc1ccc(COc2cccc3onc(Nc4cccnc4)c23)cc1` [Scheme I-21, 4-((4-Trifluoromethoxybenzyl)oxy)-N-(pyridin-3-yl)benzo[d]-isoxazol-3-amine], the IC50 in test [1] is above 10 µM. Further, the inhibition at 50 µM in test [2] was 5%.
In test [1], `N#Cc1ccccc1COc1cccc2onc(Nc3cccnc3)c12` [Scheme I-22, 4-((2-Cyanobenzyl)oxy)-N-(pyridin-3-yl)benzo[d]isoxazol-3-amine] registered an IC50 of 4.14 µM. Moreover, the inhibition at 50 µM in test [2] amounted to 4%.
As for `N#Cc1cccc(COc2cccc3onc(Nc4cccnc4)c23)c1` [Scheme I-23, 4-((3-Cyanobenzyl)oxy)-N-(pyridin-3-yl)benzo[d]isoxazol-3-amine], it took 0.945 µM to reach half-maximal inhibition in test [1] (IC50). Also, the inhibition at 50 µM in test [2] was determined as 8%.
For `Cc1cccc(C)c1COc1cccc2onc(Nc3cccnc3)c12` [Scheme I-25, 4-((2,6-Dimethylbenzyl)oxy)-N-(pyridin-3-yl)benzo[d]isoxazol-3-amine], in test [1], the Selectivity ratio was 307 and it took 0.153 µM to reach half-maximal inhibition (IC50). Also, in test [2], 47 µM corresponded to half-maximal inhibition (IC50) and the inhibition at 50 µM stood at 53%.
As to `Clc1cccc(Cl)c1COc1cccc2onc(Nc3cccnc3)c12` [Scheme I-26, 4-((2,6-Dichlorobenzyl)oxy)-N-(pyridin-3-yl)benzo[d]isoxazol-3-amine], in test [1], the Selectivity ratio is reported as 886 and inhibition was half-maximal at 0.079 µM (IC50). Besides, in test [2], the half-inhibitory concentration (IC50) stood at 70 µM and the inhibition at 50 µM is 25%.
In the case of `Fc1cccc(F)c1COc1cccc2onc(Nc3cccnc3)c12` [Scheme I-27, 4-((2,6-Difluorobenzyl)oxy)-N-(pyridin-3-yl)benzo[d]isoxazol-3-amine], it took 0.72 µM to reach half-maximal inhibition in test [1] (IC50). Besides, the inhibition at 50 µM in test [2] worked out at 30%.
Compound `c1ccc(COc2cccc3snc(Nc4cccnc4)c23)cc1` [Scheme I-31, 4-(benzyloxy)-N-(pyridin-3-yl)benzo[d]isothiazol-3-amine] showed a half-maximal inhibitory concentration (IC50) in test [1] of 1.46 µM. Moreover, the inhibition at 50 µM in test [2] worked out at 13%.
On to `Fc1ccc(Cl)c(COc2cccc3onc(Nc4cncnc4)c23)c1` [Scheme I-33, 4-((2-chloro-5-fluorobenzyl)oxy)-N-(pyrimidin-5-yl)benzo[d]isoxazol-3-amine], for which, in test [1], the IC50 amounted to 0.86 µM. In addition, the inhibition at 50 µM in test [2] was 60%.
Compound `CCN(CC)CC(=O)Nc1noc2cccc(OCc3cc(F)ccc3Cl)c12` [Scheme I-35, N-(4-((2-chloro-5-fluorobenzyl)oxy)benzo[d]isoxazol-3-yl)-2-(diethylamino) acetamide] yielded a 50% inhibitory concentration (IC50) in test [1] above 10 µM. Moreover, the inhibition at 50 µM in test [2] was found to be 11%.
For `O=C(CN1CCCC1)Nc1noc2cccc(OCc3cc(F)ccc3Cl)c12` [Scheme I-36, N-(4-((2-chloro-5-fluorobenzyl)oxy)benzo[d]isoxazol-3-yl)-2-(pyrrolidin-1-y) acetamide] the same measures were above 10 µM and 9%.
The corresponding values for `O=C(CN1CCCCC1)Nc1noc2cccc(OCc3cc(F)ccc3Cl)c12` [Scheme I-37, N-(4-((2-chloro-5-fluorobenzyl)oxy)benzo[d]isoxazol-3-yl)-2-(piperidin-1-yl)acetamide] are above 10 µM and 60%.
The corresponding values for `O=C(CN1CCOCC1)Nc1noc2cccc(OCc3cc(F)ccc3Cl)c12` [Scheme I-38, N-(4-((2-chloro-5-fluorobenzyl)oxy)benzo[d]isoxazol-3-yl)-2-morpholinoacetamide] are above 10 µM and -1%.
`c1ccc(-c2cc(COc3cccc4onc(Nc5cccnc5)c34)ccn2)cc1` [Scheme I-39, 4-((2-phenylpyridin-4-yl)methoxy)-N-(pyridin-3-yl)benzo[d]isoxazol-3-amine] showed a half-inhibitory concentration (IC50) in test [1] of 13 µM. Further, in test [2], the inhibition at 50 µM is -6%.

As a reminder, the IC50 is the concentration at which inhibition is half-maximal. By inhibition is commonly meant the drop in the measured response relative to a control, in per cent.

Values taken from patent US11396504B2, “Alkoxybenzo-five-membered (six-membered) heterocyclic amine compound and pharmaceutical use thereof” (FUDAN UNIVERSITY, priority 2018, dated 2022).
